Assay results taken from patent publication US8895474B2, “Herbicidally active cyclopentanediones and derivatives thereof, and their use in controlling weeds” (Syngenta Limited, priority 2009, dated 2014).

How the values were obtained:
Format in all cases: in vivo
Settings in all cases: 312 h, rate 250 g/ha, evaluated after 13 days, 100=total damage to plant, 0=no damage to plant
[1] = test system: Alopecurus myosuroides (ALOMY); assay: Post-emergence herbicidal activity, glasshouse pot test
Experimental: (§1) Seeds of a variety of test species were sown in standard soil in pots. After cultivation for one day (pre-emergence) or after 8 days cultivation (post-emergence) under controlled conditions in a glasshouse (at 24/16° C., day/night; 14 hours light; 65% humidity), the plants were sprayed with an aqueous spray solution derived from the formulation of the technical active ingredient in acetone/water (50:50) solution containing 0.5% Tween 20 (polyoxyethelyene sorbitan monolaurate, CAS RN 9005-64-5). The test plants were then grown in a glasshouse under controlled conditions in a glasshouse (at 24/16° C., day/night; 14 hours light; 65% humidity) and watered twice daily. After 13 days for pre and post-emergence, the test was evaluated (100=total damage to plant; 0=no damage to plant). Test Plants: Lolium perenne (LOLPE), Alopecurus myosuroides (ALOMY), Echinochloa crus-galli (ECHCG), and Avena fatua (AVEFA). Post-Emergence Activity

[2] = test system: Lolium perenne (LOLPE); assay: as above
Experimental: as §1

[3] = test system: Echinochloa crus-galli (ECHCG); assay: as above
Experimental: as §1

[4] = test system: Avena fatua (AVEFA); assay: as above
Experimental: as §1

[5] = test system: Alopecurus myosuroides (ALOMY); assay: Pre-emergence herbicidal activity, glasshouse pot test
Experimental: as §1, with “Pre-Emergence” for “Post-Emergence”

[6] = test system: Lolium perenne (LOLPE); assay: as above
Experimental: as §1, with “Pre-Emergence” for “Post-Emergence”

[7] = test system: Echinochloa crus-galli (ECHCG); assay: as above
Experimental: as §1, with “Pre-Emergence” for “Post-Emergence”

[8] = test system: Avena fatua (AVEFA); assay: as above
Experimental: as §1, with “Pre-Emergence” for “Post-Emergence”

Structure (SMILES) | pest or weed control at 250 g/ha [1] [%] | pest or weed control at 250 g/ha [2] [%] | pest or weed control at 250 g/ha [3] [%] | pest or weed control at 250 g/ha [4] [%] | pest or weed control at 250 g/ha [5] [%] | pest or weed control at 250 g/ha [6] [%] | pest or weed control at 250 g/ha [7] [%] | pest or weed control at 250 g/ha [8] [%]
CCc1ccc(Oc2ncc(Cl)cc2C(F)(F)F)cc1C1=C(O)CCC1=O [Compound A-78] | 100 | 90 | 100 | 90 | 70 | 100 | 100 | 70
CCc1ccc(Oc2ccc(C#N)c(Cl)c2)cc1C1=C(O)CCC1=O [Compound A-56] | 20 | 20 | 70 | 0 | 30 | 50 | 60 | 20
CCc1ccc(Oc2ccc([N+](=O)[O-])c(Cl)c2)cc1C1=C(O)C2C(C1=O)[C@H]1CC[C@@H]2CC1 (some centres unmarked) [Compound A-86] | 10 | 10 | 100 | 10 | 0 | 20 | 20 | 0
CCc1ccc(Oc2cccc(Br)c2)cc1C1=C(O)[C@H]2[C@@H](C1=O)[C@@H]1CC[C@H]2O1 [Compound A-47] | 60 | 70 | 90 | 30 | 60 | 70 | 90 | 30
CCc1ccc(Oc2ncc(Cl)cc2F)cc1C1=C(O)[C@H]2[C@H]3CC[C@H](C3)[C@H]2C1=O [Compound A-11] | 80 | 70 | 100 | 90 | 30 | 80 | 100 | 50
CCc1ccc(Oc2ccc(Cl)cc2F)cc1C1=C(O)C2C(C1=O)[C@H]1CC[C@@H]2CC1 (some centres unmarked) [Compound A-32] | 90 | 30 | 100 | 90 | 0 | 40 | 60 | 0
CCc1ccc(Oc2ccc(Br)cc2F)cc1C1=C(O)[C@H]2[C@H]3CC[C@H](C3)[C@H]2C1=O [Compound A-27] | 60 | 80 | 80 | 70 | 20 | 40 | 60 | 0
CCc1ccc(Oc2ccc(C(F)(F)F)c(C#N)c2)cc1C1=C(O)CCC1=O [Compound A-70] | 0 | 10 | 60 | 0 | 0 | 20 | 60 | 10
CCc1ccc(Oc2ncc(Cl)cc2F)cc1C1=C(O)C2C(C1=O)[C@H]1CC[C@@H]2CC1 (some centres unmarked) [Compound A-14] | 100 | 90 | 100 | 100 | 60 | 90 | 100 | 60
CCc1ccc(Oc2cnc3ccccc3n2)cc1C1=C(O)CCC1=O [Compound A-67] | 70 | 80 | 100 | 20 | 60 | 100 | 100 | 40
